{"source": "paper PMC11249239", "about": "(PLOS ONE, 2024)", "key": {"MDA-MB-231 (TNB) cells": {"tested_on": "MDA-MB-231 (TNB) cells", "assay": "Cell growth inhibition (CCK8 cytotoxicity assay), MDA-MB-231", "format": "cell-based", "conditions": "48 h treatment, read-out: Average EC50 ± SD, cell growth inhibition"}, "[1]": {"tested_on": "acetylated histone 3 lysine 9 (H3K9ac)", "assay": "Western blot, acetylation of histone H3 lysine 9", "format": "cell-based", "conditions": "MCF7 and MDA-MB-231; 1 μM; within 0.5 h", "source_text": "(§1) Following treatment of cells with SP-1-303 over a time course, total or nuclear proteins were extracted and analyzed on 4–20% trisglycine gradient sodium dodecyl sulfate polyacrylamide gel electrophoresis (SDS-PAGE). Subsequently, membranes were probed with antibodies targeting specific proteins in accordance with the manufacturers’ protocols, including ATM (ab78), p-BRCA1 (ab90528), BRCA1 (ab191042), p-p53/S15 (ab1431), acetylated H3K9 (ab12179) from Abcam, as well as p-ATM (# 5883) and p53 (#9282) from Cell Signaling, α-tubulin (T6793) and β-actin (A3854) from Sigma-Aldrich, ER-α (cat# MA1-80216, Invitrogen) and HDAC2 (BML-SA402. Enzo). Protein images were captured using ECL Prime Western Blotting Detection Reagents (Cat#. RPN2232, Amersham) and the Amersham Imager 600. For immunofluorescent analysis, formalin fixed cells were permeabilized with 0.1% Triton X-100 in TBS for 10 minutes at room temperature, followed by blocking with 1% Blocker BSA for 15 minutes at room temperature. Cells were then probed with a phospho-ATM monoclonal antibody (MA5-15185) and DyLight 488 goat anti-mouse IgG secondary antibody at room temperature. Actin was stained with DyLight 554 phalloidin, while nuclei were stained with 4’,6-diamidino-2-phenylindole dye (DAPI). Images were captured using a Nikon Epi Fluorescent microscopy."}, "[2]": {"assay": "Plasma pharmacokinetics after intravenous administration", "format": "in vivo, Sprague-Dawley rats", "conditions": "20 mg/kg IV", "source_text": "A commercial vendor (Medicilon, Inc.) performed the pharmacokinetic studies. Male Sprague-Dawley Rats (n = 8) were received from Sino-British SIPPR/BK Lab Animal Ltd., Shanghai, and 6 animals were placed on study. All studies were approved by the Institutional Animal Care and Use Committee (Protocol #: 19098–17002) of Medicilon Preclinical Research-Shanghai LLC, Pudong Shanghai 201200, P.R. China. The animals were allowed to acclimatize for at least 5 d before beginning the study. The procedure was performed under general anesthesia with 3–5% isoflurane for blood collections via jugular vein. All efforts were made to minimizing suffering and least stressful. The compound was dissolved in 5% DMSO + 40% PEG400 + 55% PBS to yield a final concentration of 2 mg/ml. The tolerated dose (20 mg/Kg) was administered via intravenous (IV) in rats. After IV administration, blood samples were collected via jugular vein at various time points (0, 1, 2, 4, 6, and 8 h) under general anesthesia with 3–5% isoflurane. Samples were then placed into tubes containing K2EDTA and centrifuged at 8,000 rpm for 6 min to obtain plasma. The resulting plasma were analyzed by LCMS. Following completion of the study, all surviving animals were euthanized with CO2, followed by cervical dislocation. Pharmacokinetic analysis was determined using a non-compartmental module of WinNonlin Professional 5.2. The maximum measured plasma concentrations (Cmax) and the time of Cmax (tmax) were derived directly from the data. The area under the curve (AUC) was calculated using the log-linear trapezoidal method rule up to the last data point and was extrapolated to infinity with the following formula: Clast/β, where Clast is the last measured concentration time point. The elimination half-life was calculated with the equation t1/2 = 0.693/β, where β is the terminal rate constant. The clearance (Cl = dose/AUC) rate was also evaluated."}, "[3]": {"tested_on": "triple negative breast cancer cells", "assay": "Cell growth inhibition, triple negative breast cancer cells stated together", "format": "cell-based", "conditions": "range over triple negative breast cancer cells; read-out: effective growth inhibition concentrations (EC50)", "source_text": "Prism-GraphPad software was used to analyze data."}, "p-ATM/S1981": {"tested_on": "p-ATM/S1981", "assay": "Western blot, phosphorylation of ATM", "format": "cell-based", "conditions": "MCF7 and MDA-MB-231; 1 μM; within 0.5 h", "source_text": "as §1"}, "[4]": {"tested_on": "MCF10A normal breast epithelial cells", "assay": "Cell growth inhibition (CCK8 cytotoxicity assay), MCF10A", "format": "cell-based", "conditions": "48 h treatment, read-out: Average EC50 ± SD, cell growth inhibition"}, "acetylated α-tubulin": {"tested_on": "acetylated α-tubulin", "assay": "Western blot, acetylation of α-tubulin", "format": "cell-based", "conditions": "MCF7 and MDA-MB-231; 1 μM; time dependent", "source_text": "as §1"}, "MCF7 cells": {"tested_on": "MCF7 cells", "assay": "Cell cycle analysis by flow cytometry (FACS)", "format": "cell-based", "procedure": "Cells were treated with SP-1-303 for 24, 48, and 72 hours. DMSO and ionizing radiation (IR) were used on controls. The cell cycle distributions were analyzed by flow cytometry. The cells were harvested at the indicated times, washed twice with cold phosphate-buffered saline (PBS), and fixed with citrate/DMSO buffer for overnight. The cells were resuspended in PBS containing 40 μg/ml of DNase-free RNase A and 50 μg/ml of propidium iodide, and the cell cycle distributions were measured in a fluorescence-activated cell sorter (FACSort) from Becton Dickinson. DNA content was quantified using ModFit LT 3.0 software (Verity Software House, Inc)."}, "MCF10A cells": {"tested_on": "MCF10A cells", "assay": "Radiation clonogenic survival assay, MCF10A", "format": "cell-based", "conditions": "0.3 μM for 24 h then graded γ-radiation, control 2.5 Gy", "procedure": "Logarithmically growing cells were treated with vehicle (0.1% Dimethyl Sulfoxide) or SP-1-303 (0.3 μM) for 24 h followed by sham or γ-radiation using a Mark-30 irradiator with a 137Cs source at a fixed dose rate of 2.71 Gy/min. Cells were exposed to graded doses at room temperature. After 10–14 days, cells were fixed and stained with crystal violet, and colonies were counted. The surviving fractions of treated cells were normalized using the plating efficiencies of untreated controls. Radiation survival curves were generated by fitting to the single-hit, multitarget model."}, "p53": {"tested_on": "p53", "assay": "Western blot of nuclear extracts, p53 expression", "format": "cell-based", "conditions": "1 μM, time course", "source_text": "as §1"}, "HDAC4": {"target": "HDAC4 (Homo sapiens, UniProt P56524)", "sequence (P56524 whole entry, species assumed)": "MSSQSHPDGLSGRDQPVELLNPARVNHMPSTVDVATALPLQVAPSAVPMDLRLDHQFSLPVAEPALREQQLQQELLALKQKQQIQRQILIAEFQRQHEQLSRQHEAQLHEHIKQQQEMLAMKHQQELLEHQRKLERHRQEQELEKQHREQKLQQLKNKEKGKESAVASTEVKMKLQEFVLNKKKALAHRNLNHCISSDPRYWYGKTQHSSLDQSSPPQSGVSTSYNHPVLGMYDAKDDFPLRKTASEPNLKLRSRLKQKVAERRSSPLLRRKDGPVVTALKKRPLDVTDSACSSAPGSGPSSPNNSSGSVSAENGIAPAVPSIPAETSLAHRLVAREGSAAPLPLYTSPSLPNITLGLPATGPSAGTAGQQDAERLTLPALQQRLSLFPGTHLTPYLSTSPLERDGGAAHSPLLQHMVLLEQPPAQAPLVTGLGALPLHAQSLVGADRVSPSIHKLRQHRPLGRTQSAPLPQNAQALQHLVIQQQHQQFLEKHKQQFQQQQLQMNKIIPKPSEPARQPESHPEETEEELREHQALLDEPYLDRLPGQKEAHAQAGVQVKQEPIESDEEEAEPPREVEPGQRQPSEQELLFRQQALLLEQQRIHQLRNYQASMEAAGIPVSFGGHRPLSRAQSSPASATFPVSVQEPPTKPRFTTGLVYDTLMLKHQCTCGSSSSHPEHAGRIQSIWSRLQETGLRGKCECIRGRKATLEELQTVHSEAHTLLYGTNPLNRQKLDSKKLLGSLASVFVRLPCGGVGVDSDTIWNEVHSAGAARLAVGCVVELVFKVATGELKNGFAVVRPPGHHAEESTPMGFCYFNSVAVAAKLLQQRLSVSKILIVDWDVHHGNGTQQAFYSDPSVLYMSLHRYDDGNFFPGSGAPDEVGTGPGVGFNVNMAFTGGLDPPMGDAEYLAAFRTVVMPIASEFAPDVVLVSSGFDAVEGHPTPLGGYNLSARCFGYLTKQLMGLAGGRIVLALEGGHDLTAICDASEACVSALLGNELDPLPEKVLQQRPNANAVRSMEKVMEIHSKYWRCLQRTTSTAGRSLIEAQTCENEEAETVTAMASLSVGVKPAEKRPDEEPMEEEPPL", "assay": "HDAC4 activity inhibition (data not shown)", "format": "biochemical", "conditions": "read-out: IC50 class IIa HDAC4 inhibition"}, "phosphorylated p53": {"tested_on": "phosphorylated p53", "assay": "Western blot, phosphorylated p53", "format": "cell-based", "conditions": "1 μM", "source_text": "as §1"}, "HCC-1937 (TNB) cells": {"tested_on": "HCC-1937 (TNB) cells", "assay": "Cell growth inhibition (CCK8 cytotoxicity assay), HCC-1937", "format": "cell-based", "conditions": "48 h treatment, read-out: Average EC50 ± SD, cell growth inhibition"}}, "note": "Values joined by “and” are separate entries in the source; they are usually repeats but may differ in a detail not shown here. Identical values can stand only once. Like-named read-outs stand apart in the source and are kept apart here."}
{"smiles": "Cc1[nH]c2ccccc2c1C1=C(c2c(C)[nH]c3ccccc23)C(=O)N(CCCCCCC(=O)NO)C1=O", "note": "[SP-1-303]", "values": [{"measurement": "EC50", "setting": "MDA-MB-231 (TNB) cells", "value": "1.22 ± 0.243", "unit": "µM"}, {"measurement": "EC50", "setting": "MDA-MB-231 (TNB) cells; Homo sapiens, MDA-MB-231, 48 h", "value": 1.2, "unit": "µM"}, {"measurement": "acetylation of histone H3 lysine 9 (H3K9)", "setting": "[1]", "value": "significantly enhanced"}, {"measurement": "Tmax", "setting": "[2]; male, Sprague-Dawley, plasma, rat, mean value, read-out: tmax, time to reach maximum plasma concentration", "value": 4.98, "unit": "min"}, {"measurement": "half-life", "setting": "[2]; male, Sprague-Dawley, plasma, rat, read-out: t1/2, elimination half-life (converted)", "value": 75.6, "unit": "min"}, {"measurement": "compound remaining in plasma at 4 h", "setting": "[2]; rat plasma, 4 h", "value": 1, "unit": "%"}, {"measurement": "AUC, area under the curve", "setting": "[2]; rat", "value": 5227.55, "unit": "ng/ml x h"}, {"measurement": "EC50", "setting": "[3]", "value": "1.2 to 2.5", "unit": "µM"}, {"measurement": "phosphorylation of ATM/S1981", "setting": "p-ATM/S1981", "value": "significantly enhanced"}, {"measurement": "EC50", "setting": "[4]", "value": 12.2, "unit": "µM"}, {"measurement": "EC50", "setting": "[4]; Homo sapiens, MCF-10A, 48 h", "value": "~12", "unit": "µM"}, {"measurement": "acetylation of α-tubulin", "setting": "acetylated α-tubulin", "value": "gradually increased"}, {"measurement": "% Cells in G1", "setting": "MCF7 cells; 24 HR", "value": 89.44, "unit": "%"}, {"measurement": "% Cells in G2/M", "setting": "MCF7 cells; 24 HR", "value": 6.19, "unit": "%"}, {"measurement": "% Cells in S", "setting": "MCF7 cells; 24 HR", "value": 4.37, "unit": "%"}, {"measurement": "% Cells in G2/M", "setting": "MCF7 cells; 24 HR + IR", "value": 5.12, "unit": "%"}, {"measurement": "% Cells in S", "setting": "MCF7 cells; 24 HR + IR", "value": 3.91, "unit": "%"}, {"measurement": "% Cells in G1", "setting": "MCF7 cells; 24 HR + IR (combination with radiation)", "value": "91% and 90.97%"}, {"measurement": "% Cells in G1", "setting": "MCF7 cells; 48 HR", "value": 71.02, "unit": "%"}, {"measurement": "% Cells in G2/M", "setting": "MCF7 cells; 48 HR", "value": 6.75, "unit": "%"}, {"measurement": "% Cells in S", "setting": "MCF7 cells; 48 HR", "value": 22.24, "unit": "%"}, {"measurement": "% Cells in G1", "setting": "MCF7 cells; 72 HR", "value": 81.35, "unit": "%"}, {"measurement": "% Cells in G2/M", "setting": "MCF7 cells; 72 HR", "value": 6.21, "unit": "%"}, {"measurement": "% Cells in S", "setting": "MCF7 cells; 72 HR", "value": 12.45, "unit": "%"}, {"measurement": "D0, radiation clonogenic survival", "setting": "MCF10A cells", "value": 2.4, "unit": "Gy"}, {"measurement": "expression of p53", "setting": "p53; MCF7", "value": "gradual increase"}, {"measurement": "expression of p53", "setting": "p53; MDA-MB-231", "value": "no significant change"}, {"measurement": "IC50", "setting": "HDAC4", "value": "> 20", "unit": "µM"}, {"measurement": "phosphorylated p53", "setting": "phosphorylated p53; MCF7, within 1h to 2h", "value": "induction"}, {"measurement": "phosphorylated p53", "setting": "phosphorylated p53; MDA-MB-231", "value": "no phosphorylated p53"}, {"measurement": "EC50", "setting": "HCC-1937 (TNB) cells", "value": 2.48, "unit": "µM"}, {"measurement": "EC50", "setting": "HCC-1937 (TNB) cells; Homo sapiens, HCC1937, 48 h", "value": 2.5, "unit": "µM"}]}
